The record followed here is patent US11536729B2, “Method of identifying novel protein aggregation inhibitors based on chemical kinetics” (Cambridge Enterprise Limited, priority 2016, dated 2022).

Holding throughout (assay type): biochemical
Assay [1] concerns the target T1, Aβ42 (Homo sapiens, UniProt P05067).
T1 construct: The recombinant Aβ (M1-42) peptide; made in house; host or cells: E. coli BL21 Gold (DE3)
Description: ThT-based Aβ42 aggregation kinetics under quiescent (unseeded) conditions. The protocol:
Solutions of monomeric peptides were prepared by dissolving the lyophilized Aβ42 peptide in 6 M GuHCl. Monomeric forms were purified from potential oligomeric species and salt using a Superdex 75 10/300 GL column (GE Healthcare) at a flowrate of 0.5 mL/min, and were eluted in 20 mM sodium phosphate buffer, pH 8 supplemented with 200 μM EDTA and 0.02% NaN3. The center of the peak was collected and the peptide concentration was determined from the absorbance of the integrated peak area using ε280=1400 l mol^−1 cm^−1. The obtained monomer was diluted with buffer to the desired concentration and supplemented with 20 μM Thioflavin T (ThT) from a 1 mM stock. All samples were prepared in low binding eppendorf tubes on ice using careful pipetting to avoid introduction of air bubbles. Each sample was then pipetted into multiple wells of a 96-well half-area, low-binding, clear bottom and PEG coating plate (Corning 3881), 80 μL per well.
We verified that the addition of 1% DMSO in the reaction mixture has no effect on Aβ42 aggregation.
Assays were initiated by placing the 96-well plate at 37° C. under quiescent conditions in a plate reader (Fluostar Omega, Fluostar Optima or Fluostar Galaxy, BMGLabtech, Offenburg, Germany). The ThT fluorescence was measured through the bottom of the plate with a 440 nm excitation filter and a 480 nm emission filter. The ThT fluorescence was followed for three repeats of each sample.
The time evolution of the total fibril mass concentration, M(t), is described by the following integrated rate law (30, 32)
[formula] where the kinetic parameters B±, C±, κ, κ∞ and ? are functions of the two ? combinations of the microscopic rate constants k+k2 and knk2, where kn, k+ and k2 are the primary nucleation, elongation and secondary nucleation rate constants, respectively.
The time evolution of the total fibril mass concentration, M(t), is described by the following integrated rate law
[formula] where the kinetic parameters B±, C±, κ, κ∞ and ? are functions of the two combinations of the microscopic rate constants k+k2 and knk2, where kn, k+ and k2 are the primary nucleation, elongation and secondary nucleation rate constants, respectively. Aβ42 alone in 1% DMSO was first modeled to obtain the k+k2 and knk2 combined microscopic rate constants.
With the introduction of different small molecules, the aggregation process can be inhibited by one or more individual microscopic reactions. Microscopic rate constants k+k2 and knk2 were obtained in the presence of the molecules, and compared to the initial values of Aβ42 alone. This comparison allows one to understand which rate was mainly perturbed, as well as the potency of the compounds (by relative changes of their microscopic rates) with respect to each other.
Target sequence in this assay (P05067 671-713): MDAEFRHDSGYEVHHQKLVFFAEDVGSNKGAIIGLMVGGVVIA

The target in assay [2] is T1, Aβ42. Description: ThT Aβ42 aggregation kinetics with 10% pre-formed fibril seeds (elongation dominant). The settings on record: 2 μM Aβ42, 10-fold excess. On the procedure:
(§1) Samples were then collected from the wells into low-binding tubes and sonicated for 2 min in a sonicator bath at room temperature. Under the considered conditions (i.e. 4 μM Aβ42), the monomer concentration is negligible at equilibrium (31). The final concentration of fibrils, in monomer equivalents, was considered equal to the initial concentration of monomer. Fibrils were then added to freshly prepared monomer in order to reach either 5% or 10% fibrils final concentration.
(§2) Assays were initiated by placing the 96-well plate at 37° C. under quiescent conditions in a plate reader (Fluostar Omega, Fluostar Optima or Fluostar Galaxy, BMGLabtech, Offenburg, Germany). The ThT fluorescence was measured through the bottom of the plate with a 440 nm excitation filter and a 480 nm emission filter. The ThT fluorescence was followed for three repeats of each sample. […]
Target sequence in this assay (P05067 672-713 limits assumed): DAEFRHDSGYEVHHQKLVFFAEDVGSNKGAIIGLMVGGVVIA

In assay [3] the target is T1, Aβ42. Nature of the assay: ThT Aβ42 aggregation kinetics with 1-5% pre-formed fibril seeds (surface-catalyzed secondary nucleation). The settings on record: 2 μM Aβ42, 0.5- and 5-fold excess. The protocol: For the seeded experiments, preformed fibrils were prepared just prior to the experiment. Kinetic experiments were set up just as above for a […] Aβ42 samples in 20 mM sodium phosphate buffer, pH 8 with 200 μM EDTA, 0.02% NaN3 and 20 μM ThT. The ThT fluorescence was monitored for 3 hours to verify the formation of fibrils.
as §1, §2
Target sequence in this assay (P05067 672-713 limits assumed): as above
For the seeded experiments, preformed fibrils were prepared just prior to the experiment. […] The ThT fluorescence was monitored for 3 hours to verify the formation of fibrils. […]

The next assay has as its target T2, Aβ42 fibrils (Homo sapiens, UniProt P05067).
T2 construct: The recombinant Aβ (M1-42) peptide; made in house; host or cells: E. coli BL21 Gold (DE3)
Description: Dot blot assay with fibril-specific OC antibody (label-free fibril formation). The settings on record: 2 μM Aβ42, 4-fold excess. On the procedure:
Blotting was performed using either Aβ42 fibril-specific antibody (OC, Millipore) or Aβ42 sequence-specific antibody (W0-2, Millipore). […] Aβ42 aliquots were spotted onto a nitrocellulose membrane (0.2 μm, Whatman) and then the membranes were dried and then blocked with Blocking One (Nacalai tesque) before immuno-detection. OC and W0-2 were used according to the manufacturers instructions. Alexa Fluor® 488-conjugated secondary antibodies (Life technologies) were subsequently added and fluorescence detection was performed using Typhoon Trio Imager (GE Healthcare). […] For the calibration curve (FIG. 3d), a series of dilutions between 4 μM and 0.1 μM were performed on freshly prepared Aβ42 fibrils and 4 μL aliquots were deposited onto the same nitrocellulose membrane (0.2 μm, Whatman) as the one used for OC fibril-specific antibody. […] However, under these conditions we could not detect oligomers due to their very low concentration during Aβ42 aggregation even when depositing on the membrane volumes as high as 20 μL.

[4] abbreviates: 2 μM Aβ42, 4-fold excess of compound.

T2 sequence (P05067 672-713 limits assumed): as above

In the case of `C=C(c1ccc(C(=O)O)cc1)c1cc2c(cc1C)C(C)(C)CCC2(C)C` [bexarotene], at Aβ42 [1] (setting [4]), the “increase of time to half-completion compared to Aβ42 alone” value is reported as “factor of two” and the “time to half-completion of the aggregation reaction” value stood at 4.50 ± 0.06 h. In addition, the “time for which unseeded aggregation was completely inhibited” value on Aβ42 [1] (2 μM Aβ42, 10-fold excess) amounted to 15 h. Moreover, on Aβ42 [1] (5 μM Aβ42, 5-25 μM bexarotene), the “effect on secondary pathways (k2k+)” value is reported as “no (or very little) detectable effect” and the “primary nucleation rate constant kn” value is “specifically decreased”. At Aβ42 [1] (increasing concentrations of bexarotene), the “effect on Aβ42 aggregation” value is listed as “progressive delay”. Moreover, the “effect on aggregation kinetics with 10% fibril seeds” value at Aβ42 [2] is given as “no effect was observed”. Moreover, at Aβ42 [3], the “effect on aggregation kinetics with 5% pre-formed fibril seeds” value is “concentration-dependent bexarotene-induced delay”. In addition, the “delay in the time required for half-completion of the aggregation process” value at Aβ42 fibrils is on record as 2 h.
